Structures can show the parent of a compound that is named as a salt.

Results on six compounds are retold here after patent US10543157B2, “Method of treating a hair disorder with N-hydroxypyridinones” (The Procter & Gamble Company, priority 2016, dated 2020).

One data set has as its system VEGF. Description: In-vitro cell based VEGF induction (ELISA). As to conditions: human dermal fibroblasts, 24 hrs treatment, spent media, normalized to ATP. The text has this: (§1) Wherein R′ and R″ are independently either hydrogen or a substituted or unsubstituted hydrocarbon group having between 1 and 20 carbon atoms. Compounds of this class can be synthesized following the procedure disclosed in U.S. Pat. No. 5,675,013. In certain aspects, the 2-pyridinol-N-oxide compound is 1-hydroxy-6-(octyloxy)-2(1H)-Pyridinone. This compound can be synthesized following the procedure disclosed in U.S. Pat. No. 5,675,013. Methods In-Vitro Cell Based Method for Measuring HIF-1 Stabilization and VEGF Induction: Human dermal fibroblasts are maintained and treated in Dulbecco's Modified Eagle Medium (DMEM) supplemented with 10% fetal bovine serum (FBS) and 1% penicillin/streptomycin. For HIF and VEGF experiments, cells are plated at 10,000 cells per well in 96-well plates. After two days, cells are treated with materials of interest solubilized in DMSO. DMSO concentration in media never exceeded 0.5%. Treatment times are 4 hrs for HIF-1a and 24 hrs for VEGF. Analytes are assayed via ELISA. After 4 hrs treatment, cells are fixed and assayed for HIF-1a using the Human/Mouse Total HIF-1a Immunoassay (R&D Systems) according to manufacturer instructions. After 24 hrs treatment, spent culture media are harvested and assayed for VEGF using the V-PLEX Human VEGF Kit (MSD) according to manufacturer instructions. HIF-1a and VEGF signals are normalized to cytochrome c signal and ATP signal, respectively, and then compared to that of untreated control. Half-maximal effective concentrations of materials are calculating using GraphPad Prism version 6 software or any other suitable software.
In general terms: In an ELISA, binding on a coated surface is turned into a signal by an enzyme label.

A further data set relates to HIF-1α. Description: In-vitro cell based HIF-1 stabilization (ELISA). Particulars: human dermal fibroblasts, 4 hrs treatment, normalized to cytochrome c.
Description: as §1

In data set [1] the test system is anagen (growing) hairs of scalp. Put plainly: Clinical study #2, anagen hair count. It counts as in vivo, human. As to conditions: for ANAGEN Hair counts Change from Baseline Mean +/− SE / ANAGEN Hair counts Difference of CFBs Mean +/− SE: time not given in table (text: week 8). The text has this:
(§2) Subjects have the imaging sites located and tattoos placed within the imaging sites to mark the area that will be used for image capture. Three days post-tattoo placement, subjects will begin the pretreatment phase during which they applied their pretreatment products on the designated side of their scalp (left/right) for 11 days as a way of training subjects on the tonic application procedures. After the pretreatment phase has been completed, qualified subjects begin the 16-week treatment phase. Within each treatment group, left/right product assignments are randomized (tonic product and vehicle). In the first study subjects applied the assigned tonic product to the designated side of the scalp twice a day. The morning before each site visit, subjects wash and dry their hair and refrain from applying their test products and any styling aides until after their study visit has been completed. Subjects are instructed to wash hair at least every other day with a standard 2-in-1 shampoo during the entire washout and treatment phases. In the second study, after the pretreatment phase has been completed, subjects had their hair washed using the standard shampoo (½ head washing procedure) by a trained operator and blown dry by themselves. After washing hair (no treatment products and no styling products after washing), the two 1.8×1.8 cm imaging sites on the midfrontal/parietal scalp are clipped for hair count analysis as described below. Site staff then apply the two treatment products to the assigned sites (3×3 cm) on the scalp. Subjects return to the study site later in the day and site staff apply the 2nd application of treatment products for that day (i.e. twice a day tonic application) to each site. The following day, the subjects return to the test site and have their hair washed using the standard shampoo (½ head washing procedure) by site staff and blown dry themselves. Images of the two sites are captured for anagen hair count.
(§3) The following day and for every day during the 8-week treatment phase subjects returned to the study site in the morning and had their hair washed by site staff (½ head washing procedure) and blown dry by themselves in the morning before the 1st application of treatment products of the day. Site staff then apply the two treatment products to the assigned sites (3×3 cm) on the scalp. Subjects return to the study site later in the day and site staff apply the 2nd application of the treatment products for that day (i.e. twice a day tonic application) to each site.
(§4) An efficacy end point of these studies is the change from baseline in target area hair count (hairs/cm2) at week 8 and/or 16, as applicable. Initial hair count and growth phase assessments are performed at baseline and at weeks 8 and 16, as applicable, in a designated target area of the scalp identified by the mini tattoo applied at baseline. The assessments are performed using a 1.8-cm2 square template centered over the mini tattoo. Hair within the template is clipped to approximately 1 mm in length. Photographic imaging equipment is supplied by Canfield Scientific Inc (Fairfield, N.J.) and is used to take macrophotographs of the shaved target area. The equipment comprises a Nikon D-SLR camera body (Nikon Corporation, Tokyo, Japan), Nikkor 60 MM F2.8 lens (Nikon Corporation), and a Canfield Epiflash (Canfield Scientific Inc, Fairfield, N.J.) with a glass contact plate and is preset and locked for magnification, f-stop, and exposure control. […]

Data set [2] concerns scalp hair (target area hair count). Put plainly: Clinical study #1, split-scalp, total hair count. It counts as in vivo, human. As to conditions: for Total Hair Count Change from Baseline Mean +/− SE / Total Hair Count Difference of CFBs (active minus vehicle) Mean +/− SE: topical twice a day, test compound 1%, minoxidil 2% (Rogaine for Women). How it is done:
(§5) Two randomized, double-blind, vehicle-controlled split-scalp studies are conducted as follows:
Two weeks prior to the Baseline visit, subjects are randomized into one of the 2 treatment groups appearing in the table below.
as §2
as §4, with “control. The analysis of the hair count photographs is performed by Canfield's core imaging laboratory. (ref: Harness J A, Kohut B, Garner J, Canfield W, Canfield D, Bertolino A. Evaluation of hair count and thickness measurements in male and female pattern hair loss using a computer-assisted technique. Poster presented at: European Hair Research Society; Zurich, Switzerland, Jul. 7-9, 2005.) The same 1 cm^2 area is mapped among the baseline, week 8, and week 16 images using the dot tattoo as a reference. Each image is then assigned a definite tracking number and randomized before analysis. The compliant and validated Canfield Hair Metrix (Canfield Scientific Inc, Fairfield, N.J.) image analysis application measures the total number of hair fibers and number of telogen and anagen hair.” for “control.”

Data set [3] shares this test system. Description: Clinical study #2, split-scalp, total hair count. It counts as in vivo, human. Particulars: topical twice a day. How it is done:
as §5, §2
[…] study site in the morning and had their hair washed by site staff (½ head washing procedure) and blown dry by themselves in the morning before the 1st application of treatment products of the day. Site staff then apply the two treatment products to the assigned sites (3×3 cm) on the scalp. Subjects return to the study site later in the day and site staff apply the 2nd application of the treatment products for that day (i.e. twice a day tonic application) to each site.
An efficacy end point of these studies is the change from baseline in target area hair count (hairs/cm2) at week 8 and/or 16, as applicable. […]

The subject of data set [4] is telogen (resting) hairs of scalp. Put plainly: Clinical study #2, telogen hair count. As to conditions: for TELOGEN Hair counts Change from Baseline Mean +/− SE / TELOGEN Hair counts Difference of CFBs Mean +/− SE: time not given in table (text: week 8). The format is in vivo, human.
Description: as §2, §3
as §4, with “control. The analysis of the hair count photographs is performed by Canfield's core imaging laboratory. (ref: Harness J A, Kohut B, Garner J, Canfield W, Canfield D, Bertolino A. Evaluation of hair count and thickness measurements in male and female pattern hair loss using a computer-assisted technique. Poster presented at: European Hair Research Society; Zurich, Switzerland, Jul. 7-9, 2005.) The same 1 cm^2 area is mapped among the baseline, week 8, and week 16 images using the dot tattoo as a reference.” for “control.”

The mark [5] stands for this setting: Study #2, 16 weeks (so in the source).
[6] abbreviates: versus vehicle (minoxidil: versus baseline and vehicle), week 8.

On to `Cc1cc(CC(C)CC(C)(C)C)n(O)c(=O)c1` (stereo not shown) [1-Hydroxy-4-methyl-6-(2,4,4-trimethylpentyl)pyridin-2(1H)-one ethanolammonium salt], for which the results for the EC50 in the data set on VEGF and with HIF-1α were 2.1 µM and 0.4 µM, respectively.
Regarding `CCOC(=O)c1ccnc(C(=O)OCC)c1` [2,4-DPD, 2,4-pyridinedicarboxylic acid, diethyl ester, reference compound], the “EC50 VEGF Induction” value in the data set on VEGF is listed as “no response”. Besides, a half-maximal response in the data set on HIF-1α (Fibroblast) (EC50) required 406 µM.
Take `Cc1cc(C2CCCCC2)n(O)c(=O)c1` [6-cyclohexyl-1-hydroxy-4-methyl-2(1H)-pyridinone]: the values for the EC50 with VEGF (Fibroblast) and in the data set with HIF-1α (Fibroblast) were 2.5 µM and 3.9 µM, respectively.
As to `Nc1cc(N2CCCCC2)nc(N)[n+]1[O-]` [Minoxidil, reference compound], in data set [1], the “ANAGEN Hair counts Change from Baseline Mean +/− SE” value was 8.66 +/− 1.75 hairs/cm^2 and the “ANAGEN Hair counts Difference of CFBs Mean +/− SE” value is on record as 7.79 +/− 1.87 hairs/cm^2. Moreover, in data set [2] (Study #1, 8 weeks), the “Total Hair Count Change from Baseline Mean +/− SE” value is listed as 14.3 +/− 2.98 hairs/cm^2 and the “Total Hair Count Difference of CFBs (active minus vehicle) Mean +/− SE” value is recorded as 11.29 +/− 3.02 hairs/cm^2. Besides, in data set [2] (Study #1, 16 weeks), the “Total Hair Count Change from Baseline Mean +/− SE” value is listed as 14.83 +/− 3.53 hairs/cm^2 and the “Total Hair Count Difference of CFBs (active minus vehicle) Mean +/− SE” value is given as 13.45 +/− 3.47 hairs/cm^2. Besides, in data set [3] (setting [5]), the “Total Hair Count Change from Baseline Mean +/− SE” value was 12.93 +/− 1.77 hairs/cm^2 and the “Total Hair Count Difference of CFBs (active minus vehicle) Mean +/− SE” value is listed as 5.76 +/− 2.1 hairs/cm^2. Moreover, in data set [4], the “TELOGEN Hair counts Change from Baseline Mean +/− SE” value is reported as −4.07 +/− 1.71 hairs/cm^2 and the “TELOGEN Hair counts Difference of CFBs Mean +/− SE” value is listed as −7.45 +/− 1.85 hairs/cm^2.
In the data set on VEGF, `CCCCCCCCOc1cccc(=O)n1O` [N-Hydroxy-6-octyloxypyridine-2(1H)one, ethanolamine salt] showed a 50% effective concentration (EC50) of 13 µM.
Consider `CCCCCCCCOc1cccc(=O)n1O` [N-Hydroxy-6-octyloxypyridine-2(1H)one], for which, in data set [1], the “ANAGEN Hair counts Change from Baseline Mean +/− SE” value is 3.82 +/− 1.14 hairs/cm^2 and the “ANAGEN Hair counts Difference of CFBs Mean +/− SE” value is on record as 3.18 +/− 1.22 hairs/cm^2. In data set [1] (setting [6]), the “number of anagen (growing) hairs (in words)” value is on record as “significant increase in growing hairs”. In addition, in data set [2] (Study #1, 8 weeks), the “Total Hair Count Change from Baseline Mean +/− SE” value is given as 6.15 +/− 1.91 hairs/cm^2 and the “Total Hair Count Difference of CFBs (active minus vehicle) Mean +/− SE” value was 3.94 +/− 1.71 hairs/cm^2. In addition, in data set [2] (Study #1, 16 weeks), the “Total Hair Count Change from Baseline Mean +/− SE” value is 3.11 +/− 1.79 hairs/cm^2 and the “Total Hair Count Difference of CFBs (active minus vehicle) Mean +/− SE” value is recorded as 3.27 +/− 1.73 hairs/cm^2. Besides, the “hair count response as share of the minoxidil response, on average” value in data set [2] (Study #1, average of week 8 and 16) is 29%. In addition, the “hair count from baseline and above vehicle treatment (in words)” value in data set [2] (Study #1, week 8 & 16 (p=0.019 and p=0.045)) is “significant increase in hair count”. In addition, in data set [3] (Study #2, 8 weeks, 0.9%), the “Total Hair Count Change from Baseline Mean +/− SE” value is reported as 10.13 +/− 1.15 hairs/cm^2 and the “Total Hair Count Difference of CFBs (active minus vehicle) Mean +/− SE” value is listed as 3.35 +/− 1.37 hairs/cm^2. For the same compound, the response with VEGF (Fibroblast) was half-maximal at 30 µM (EC50). The compound also displayed an EC50 with HIF-1α (Fibroblast) of 17 µM. Further, in data set [4] (conclusion drawn from telogen counts), the “telogen effluvium (shedding)” value was “will not cause telogen effluvium”. Besides, in data set [4], the “TELOGEN Hair counts Change from Baseline Mean +/− SE” value is 2.96 +/− 1.11 hairs/cm^2 and the “TELOGEN Hair counts Difference of CFBs Mean +/− SE” value is 0.51 +/− 1.21 hairs/cm^2. Also, in data set [4] (setting [6]), the “number of telogen (resting) hairs (in words)” value is recorded as “little or no effect”.

As a reminder, the EC50 is the midpoint of the concentration-response curve. A high value points to weaker potency.
